Consider 39 molecules from ChEMBL document CHEMBL4052749, “Selective inhibitors of human mPGES-1 from structure-based computational screening” (Bioorg Med Chem Lett, 2017).

The target of data set [1] is T1, Prostaglandin E synthase (Homo sapiens) (UniProt O14684).
T1 sequence (whole entry): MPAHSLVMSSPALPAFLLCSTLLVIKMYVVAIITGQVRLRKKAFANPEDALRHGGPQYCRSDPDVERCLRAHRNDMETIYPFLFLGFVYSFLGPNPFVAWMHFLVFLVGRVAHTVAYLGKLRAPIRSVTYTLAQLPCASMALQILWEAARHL
The data set is described as follows: Inhibition of human mPGES-1 expressed in 293-F cells using PGH2 as substrate preincubated for 15 mins followed by substrate addition measured after 30 secs at 10 uM by enzyme immunoassay.

The next data set has as its target T2, Prostaglandin E synthase (Homo sapiens, UniProt O14684).
T2 sequence (O14684 whole entry): T1 sequence (whole entry)
In words: Inhibition of human mPGES-1 expressed in 293-F cells using PGH2 as substrate preincubated for 15 mins followed by substrate addition measured after 30 secs enzyme immunoassay. The class given is cell-based.

The subject of data set [2] is COX1/COX2 (ovine COX1, human COX2; the isoform is not stated for the values). In words: Inhibition of ovine COX1/human COX2 assessed as reduction in PGH2 production by measuring PGF2alpha at 100 uM using PG-acetylcholinesterase as tracer by colorimetry. The conditions noted are these: ovine COX1/human COX2 enzymes.
Data set [3] in a line: Inhibition of ovine COX1/human COX2 assessed as reduction in PGH2 production by measuring PGF2alpha using PG-acetylcholinesterase as tracer by colorimetry.

In data set [1], `Cn1c2ccccc2c(=S)c2cc(NC(=O)CCCCC(=O)Nc3ccc4c(c3)c(=S)c3ccccc3n4C)ccc21` showed an inhibition of 25%.

On to `COc1ccc(N(Nc2ccc(Br)cc2)c2ccccc2N(Nc2ccc(Br)cc2)c2ccccc2OC)cc1`, for which the IC50 against Prostaglandin E synthase was 889 nM; in data set [3], over 100000 nM. The inhibition at 100 µM in data set [2] was determined as 37%. Moreover, in data set [1], the inhibition worked out at 100%.

As for `Cc1ccccc1NC(=O)/C(Cc1nc2ccc(C(=O)c3ccccc3)cc2nc1O)=N\NC(=O)c1ccncc1`, the half-inhibitory concentration (IC50) against Prostaglandin E synthase was determined as 664 nM. Moreover, in data set [2], the inhibition at 100 µM was 0%. The molecule also returned an inhibition in data set [1] of 94%.

In turn, `O=C(OCCN(CCOC(=O)c1ccccc1)C(=O)N(CCOC(=O)c1ccccc1)CCOC(=O)c1ccccc1)c1ccccc1` displayed an inhibition in data set [1] of 46%.

On to `C[n+]1ccc(Nc2ccc(NC(=O)c3ccc(Nc4cc[n+](C)c5ccc(N)cc45)cc3N)cc2)cc1`, for which the inhibition in data set [1] stood at 30%.

In turn, `Cc1noc(NS(=O)(=O)c2ccc(/N=N/c3cc(/N=N/c4ccc(S(=O)(=O)Nc5onc(C)c5C)cc4)c4c(NC(=O)C(Cl)Cl)cccc4c3OC(=O)C(Cl)Cl)cc2)c1C` displayed an inhibition in data set [1] of 43%.

In data set [1], `CCOc1ccc(NC(=S)N2CCC(CCCC3CCN(C(=S)Nc4ccc(OCC)cc4)CC3)CC2)cc1` displayed an inhibition of 59%.

For the molecule `O=C(C(=O)c1ccc(/N=C/c2ccc(N(CCCl)CCCl)cc2)cc1)c1ccc(/N=C/c2ccc(N(CCCl)CCCl)cc2)cc1`, the inhibition in data set [1] amounted to 28%.

`O=C(N/N=C\c1ccccc1/C=N\NC(=O)Nc1ccc(/N=N/c2ccccc2)cc1)Nc1ccc(/N=N/c2ccccc2)cc1` gave an inhibition in data set [1] of 71%.

Take `CCOC(=O)CC(=O)c1cn(CCCOC(=O)CCCCCCCCC(=O)OCCCn2cc(C(=O)CC(=O)OCC)c(=O)[nH]c2=O)c(=O)[nH]c1=O`: the inhibition in data set [1] is 48%.

In data set [1], `CC(C)C(=O)OCC(C)(C)[C@H](OC(=O)COc1ccc(Cl)cc1Cl)C(C)C` had an inhibition of 69%.

The molecule `CC(C)(C)OC(=O)N[C@H](Cc1ccc(OCc2ccccc2)cc1)C(=O)N[C@H](CCCCNC(=O)OCc1ccccc1)C(=O)ON1C(=O)CCC1=O` yielded an inhibition in data set [1] of 32%.

In data set [1], `Cc1cc(NS(=O)(=O)c2ccc(/N=N/c3cc(/N=N/c4ccc(S(=O)(=O)Nc5cc(C)nc(C)n5)cc4)c4c(NC(=O)C(Cl)Cl)cccc4c3OC(=O)C(Cl)Cl)cc2)nc(C)n1` returned an inhibition of 46%.

Take `CC1=NN(C(=O)CC(=O)Nc2ccccc2C)C(=O)[C@@H]1/C=N/c1ccc(S(=O)(=O)c2ccc(/N=N/[C@@H]3C(=O)N(C(=O)CC(=O)Nc4ccccc4C)N=C3C)cc2)cc1`: in data set [1], the inhibition is 36%.

`O=c1oc2ccccc2n1P(=O)(N1CCOCC1)N1CCOCC1` yielded an inhibition in data set [1] of 29%.

As to `C[C@@H]1c2c(cc(OC(=O)c3cccc(S(=O)(=O)F)c3)nc2OC(=O)c2cccc(S(=O)(=O)F)c2)C(=O)N1Cc1ccccc1`, the inhibition in data set [1] stood at 15%.

Take `CC(=O)N[C@H]1[C@@H](OCc2ccccc2)O[C@H](CO)[C@H](O)[C@@H]1C[C@H](C)C(=O)N[C@@H](C)C(=O)N[C@H](CCC(=O)OCCNc1c2ccccc2nc2cccc([N+](=O)[O-])c12)C(N)=O`: the inhibition in data set [1] came out at 37%.

In the case of `COc1ccc(C(=O)COC(=O)[C@H](C[Se][Se]C[C@H](NC(=O)c2ccc(Br)cc2F)C(=O)OCC(=O)c2ccc(OC)cc2)NC(=O)c2ccc(Br)cc2F)cc1`, in data set [1], the inhibition came to 65%.

As to `O=C(Nc1ccccc1)c1cc(S(=O)(=O)Nc2n[nH]c(=O)[nH]2)c(SSc2cc(Cl)c(C(=O)Nc3ccccc3)cc2S(=O)(=O)Nc2n[nH]c(=O)[nH]2)cc1Cl`, in data set [1], the inhibition is 59%.

Regarding `O=[N+]([O-])c1ccc(CSc2ncc(Br)c(SCc3ccc([N+](=O)[O-])cc3)n2)cc1`, in data set [1], the inhibition amounted to 26%.

On to `O=[N+]([O-])c1ccc(N/N=C(\C=C\c2ccc3c(c2)OCO3)c2cnc(Nc3ccc(Cl)c(Cl)c3)s2)c([N+](=O)[O-])c1`, for which inhibition against Prostaglandin E synthase was half-maximal at 284 nM (IC50). Further, in data set [2], the inhibition at 100 µM was determined as 8%. Further, the inhibition in data set [1] amounted to 98%.

Molecule `CC[n+]1ccc(Nc2ccc(NC(=O)c3ccc(Nc4cc[n+](CC)c5ccc([N+](=O)[O-])cc45)cc3)cc2)cc1` came in with an inhibition in data set [1] of 70%.

`O=C(C[C@H](c1ccc2c(c1)OCO2)N1CCN([C@H](CC(=O)c2ccc(Br)cc2)c2ccc3c(c2)OCO3)CC1)c1ccc(Br)cc1`: the inhibition in data set [1] is 50%.

On to `Cc1ccc(NC(=O)c2cc(S(=O)(=O)Nc3n[nH]c(=O)[nH]3)c(SSc3cc(Cl)c(C(=O)Nc4ccc(C)cc4)cc3S(=O)(=O)Nc3n[nH]c(=O)[nH]3)cc2Cl)cc1`, for which, in data set [1], the inhibition amounted to 47%.

With `S=C(Nc1ccccc1)N1CCC(CCCC2CCN(C(=S)Nc3ccccc3)CC2)CC1`, in data set [1], the inhibition amounted to 53%.

`Cc1ccc(NC(=S)N2CCC(CCCC3CCN(C(=S)Nc4ccc(C)cc4C)CC3)CC2)c(C)c1` displayed an inhibition in data set [1] of 49%.

With `N#C[C@@H](c1ccccc1)N(CCCCCCN(C(=O)c1ccccc1)[C@@H](C#N)c1ccccc1)C(=O)c1ccccc1`, the inhibition in data set [1] was 40 to 44%.

For the molecule `CC/C(=C(/CC)c1ccc(Oc2nc(N3CC3)nc(N3CC3)n2)cc1)c1ccc(Oc2nc(N3CC3)nc(N3CC3)n2)cc1`, the inhibition in data set [1] is 46%.

In the case of `O=C(Nc1cccc2c(OC(=O)C(Cl)Cl)c(/C=C/c3ccc(S(=O)(=O)Nc4nccs4)cc3)cc(/N=N/c3ccc(S(=O)(=O)Nc4nccs4)cc3)c12)C(Cl)Cl`, in data set [1], the inhibition was 10%.

Take `N#Cc1cccc(C2C(=O)c3c(c(-c4ccccc4)c(-c4ccc(Sc5ccc(-c6c(-c7ccccc7)c7c(c(-c8ccccc8)c6-c6ccccc6)C(=O)N(c6cccc(C#N)c6)C7=O)cc5)cc4)c(-c4ccccc4)c3-c3ccccc3)C2=O)c1` (centres undefined): the 50% inhibitory concentration (IC50) against Prostaglandin E synthase turned out to be 439 nM. The inhibition at 100 µM in data set [2] is 9%. This molecule also gave an inhibition in data set [1] of 100%.

For `CCCCOc1ccc(NC(=S)Nc2ccc(N(C)C)cc2)cc1` [THIAMBUTOSINE], half-maximal inhibition at Prostaglandin E synthase (IC50) was put at 370 nM. The inhibition at 100 µM in data set [2] stood at 1%. Also, the inhibition in data set [1] turned out to be 99%.

In the case of `CC(=O)O[C@H]1CC[C@]2(C)C3C[C@@]4(C)C(CCC4[C@@H](C)CCCC(C)C)C[C@]3(C#N)n3c(=O)n(-c4ccccc4)c(=O)n3[C@]2(C#N)C1` (some centres undefined), at Prostaglandin E synthase, the IC50 stood at 276 nM. For the same molecule, the inhibition at 100 µM in data set [2] amounted to 14%. In data set [1], the inhibition was 99%.

`CC(C)(C)c1cc(OCc2nnc3sc(-c4ccc(Cl)cc4)nn23)c(Cl)cc1OCc1nnc2sc(-c3ccc(Cl)cc3)nn12`: the IC50 against Prostaglandin E synthase turned out to be 917 nM. Besides, in data set [2], the inhibition at 100 µM was 15%. The molecule further yielded an inhibition in data set [1] of 75%.

On to `CN(Cc1ccc(Cl)cc1)C(=O)NCCCCCCNC(=O)N(C)Cc1ccc(Cl)cc1`, for which the inhibition in data set [1] stood at 64%.

`O=C(Nc1ccc(Cl)cc1)Nc1nnc(-c2cccc(-c3nnc(NC(=O)Nc4ccc(Cl)cc4)o3)c2)o1` displayed an inhibition in data set [1] of 59%.

With `CCCCCCCCCCCC(=O)Nc1ccc(SSc2ccc(NC(=O)CCCCCCCCCCC)cc2)cc1`, the inhibition in data set [1] is 70%.

`CCCCCCCCCCCCc1ccc(NC2=C(Cl)C(=O)C(Nc3ccc(CCCCCCCCCCCC)cc3)=C(Cl)C2=O)cc1` had an inhibition in data set [1] of 49%.

For `O=P1(N(CCCl)CCCl)N(Cc2ccc(Cl)c(Cl)c2)CCCN1Cc1ccc(Cl)c(Cl)c1`, the inhibition in data set [1] was 65%.

On to `COc1ccc2nc3cc(Cl)ccc3c(SCC(=O)Nc3ccccc3-c3ccccc3NC(=O)CSc3c4ccc(Cl)cc4nc4ccc(OC)cc34)c2c1`, for which the inhibition in data set [1] stood at 57%.

One may read the inhibition as the percentage by which the read-out fell short of the control. For orientation: IC50 means the concentration that inhibits the measured activity by half.
